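Test compounds were applied to cells in 96-well plates for 48 hours at 5 doses. GI50 = concentration required for 50% inhibition of growth.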 The source made the active and inactive calls. Cut-off read from the data, not from the text of the source: active = GI50 up to about 1.1 µM and inactive = higher.
Tests used:
Assay in all cases: growth of human tumour cells (NCI), 48 h
SNB-75 = test system: SNB-75
Malme-3M = test system: Malme-3M
NCI-H226 = test system: NCI-H226
K562 = test system: K562
Hs-578T = test system: Hs-578T
RPMI-8226 = test system: RPMI-8226
SW-620 = test system: SW-620
U-251 = test system: U-251
NCI-H522 = test system: NCI-H522
A549 = test system: A549
TK-10 = test system: TK-10
CAKI-1 = test system: CAKI-1
M14 = test system: M14
DU-145 = test system: DU-145
HOP-62 = test system: HOP-62
KM12 = test system: KM12
PC-3 = test system: PC-3
ACHN = test system: ACHN
MCF7 = test system: MCF7
SNB-19 = test system: SNB-19
HL-60 = test system: HL-60
HOP-92 = test system: HOP-92
786-0 = test system: 786-0
UACC-257 = test system: UACC-257
A498 = test system: A498
HT-29 = test system: HT-29
OVCAR-8 = test system: OVCAR-8
OVCAR-5 = test system: OVCAR-5
NCI-H460 = test system: NCI-H460
SK-MEL-5 = test system: SK-MEL-5
UO-31 = test system: UO-31
T47D = test system: T47D
MDA-MB-231 = test system: MDA-MB-231
HCC 2998 = test system: HCC 2998
SK-OV-3 = test system: SK-OV-3
SK-MEL-2 = test system: SK-MEL-2
HCT-15 = test system: HCT-15
OVCAR-3 = test system: OVCAR-3
COLO 205 = test system: COLO 205
HCT-116 = test system: HCT-116
OVCAR-4 = test system: OVCAR-4
LOX IMVI = test system: LOX IMVI
EKVX = test system: EKVX
UACC-62 = test system: UACC-62
MOLT-4 = test system: MOLT-4
MDA-N = test system: MDA-N
SF-295 = test system: SF-295
SN12C = test system: SN12C
CCRF-CEM = test system: CCRF-CEM
NCI/ADR-RES = test system: NCI/ADR-RES
BT-549 = test system: BT-549
RXF 393 = test system: RXF 393
NCI-H23 = test system: NCI-H23
IGROV-1 = test system: IGROV-1
SF-268 = test system: SF-268
SK-MEL-28 = test system: SK-MEL-28
SF-539 = test system: SF-539
MDA-MB-435 = test system: MDA-MB-435
SR = test system: SR

For `N#Cc1ccccc1-c1nc2c3c(c(N)ccc3n1)C(=O)c1ccccc1-2`, the GI50 (SNB-75) was 50.2 µM (inactive), the GI50 (Malme-3M) was > 100 µM (inactive) and the GI50 (NCI-H226) was 35.2 µM (inactive). The GI50 (K562) was 43.5 µM (inactive), the GI50 (Hs-578T) was 33.2 µM (inactive) and the GI50 (RPMI-8226) was 14.3 µM (inactive). The GI50 (SW-620) was 31 µM (inactive), the GI50 (U-251) was 34.6 µM (inactive) and the GI50 (NCI-H522) was 32 µM (inactive). The GI50 (A549) was 71.6 µM (inactive), the GI50 (TK-10) was 21.4 µM (inactive) and the GI50 (CAKI-1) was 8.3 µM (inactive). The GI50 (M14) was 23.1 µM (inactive), the GI50 (DU-145) was 64.1 µM (inactive) and the GI50 (HOP-62) was 18.1 µM (inactive). The GI50 (KM12) was 11.5 µM (inactive), the GI50 (PC-3) was 23.7 µM (inactive) and the GI50 (ACHN) was 22.2 µM (inactive). For the same molecule, the GI50 (MCF7) was 17.6 µM (inactive), the GI50 (SNB-19) was 55.1 µM (inactive) and the GI50 (HL-60) was 20 µM (inactive). The GI50 (HOP-92) was > 100 µM (inactive), the GI50 (786-0) was 33 µM (inactive) and the GI50 (UACC-257) was > 100 µM (inactive). For the same molecule, the GI50 (A498) was 43.6 µM (inactive), the GI50 (HT-29) was 43.4 µM (inactive) and the GI50 (OVCAR-8) was 33.5 µM (inactive). The GI50 (OVCAR-5) was 34.8 µM (inactive), the GI50 (NCI-H460) was > 100 µM (inactive) and the GI50 (SK-MEL-5) was 32.1 µM (inactive). The GI50 (UO-31) was 8.85 µM (inactive), the GI50 (T47D) was 6.7 µM (inactive) and the GI50 (MDA-MB-231) was 10.3 µM (inactive). For the same molecule, the GI50 (HCC 2998) was > 100 µM (inactive), the GI50 (SK-OV-3) was 24.4 µM (inactive) and the GI50 (SK-MEL-2) was 47 µM (inactive). For the same molecule, the GI50 (HCT-15) was 31.8 µM, the GI50 (OVCAR-3) was 45.1 µM (inactive) and the GI50 (COLO 205) was 26.4 µM (inactive). The GI50 (HCT-116) was 29.7 µM (inactive), the GI50 (OVCAR-4) was 71 µM (inactive) and the GI50 (LOX IMVI) was 27.9 µM (inactive). For the same molecule, the GI50 (EKVX) was 30.3 µM (inactive), the GI50 (UACC-62) was 64.6 µM (inactive) and the GI50 (MOLT-4) was 32.3 µM (inactive). For the same molecule, the GI50 (MDA-N) was > 100 µM (inactive), the GI50 (SF-295) was 45.1 µM (inactive) and the GI50 (SN12C) was 60 µM (inactive). For the same molecule, the GI50 (CCRF-CEM) was 18.9 µM (inactive), the GI50 (NCI/ADR-RES) was > 100 µM (inactive) and the GI50 (BT-549) was > 100 µM (inactive). The GI50 (RXF 393) was 18 µM (inactive), the GI50 (NCI-H23) was 88.7 µM (inactive) and the GI50 (IGROV-1) was 8.38 µM (inactive). The GI50 (SF-268) was 51.5 µM (inactive), the GI50 (SK-MEL-28) was 24.8 µM (inactive) and the GI50 (SF-539) was 37.3 µM (inactive). For the same molecule, the GI50 (MDA-MB-435) was 76.2 µM (inactive).
In the case of `O=C1/C(=C/c2ccco2)N=C(c2ccccc2)N1c1cc2cc(Sc3ccccc3)ccc2[nH]1`, the GI50 (SNB-75) is reported as > 25 µM (inactive), the GI50 (Malme-3M) is reported as > 25 µM (inactive) and the GI50 (K562) is reported as 7.96 µM (inactive). The GI50 (Hs-578T) was 15.3 µM (inactive), the GI50 (RPMI-8226) was 0.457 µM (active) and the GI50 (SW-620) was 13.1 µM (inactive). For the same molecule, the GI50 (NCI-H522) was 11.6 µM (inactive), the GI50 (A549) was > 25 µM (inactive) and the GI50 (CAKI-1) was 9.46 µM (inactive). The GI50 (M14) was 21.6 µM (inactive), the GI50 (DU-145) was > 25 µM (inactive) and the GI50 (PC-3) was > 25 µM (inactive). For the same molecule, the GI50 (ACHN) was > 25 µM (inactive), the GI50 (MCF7) was 11 µM (inactive) and the GI50 (SNB-19) was > 25 µM (inactive). For the same molecule, the GI50 (HL-60) was 0.214 µM (active), the GI50 (HOP-92) was 8.24 µM (inactive) and the GI50 (786-0) was > 25 µM (inactive). For the same molecule, the GI50 (A498) was 17 µM (inactive), the GI50 (HT-29) was 20 µM (inactive) and the GI50 (OVCAR-8) was 22.8 µM (inactive). For the same molecule, the GI50 (OVCAR-5) was 21.6 µM (inactive), the GI50 (SR) was 5.18 µM (inactive) and the GI50 (UO-31) was 18.8 µM (inactive). The GI50 (T47D) was 15.8 µM (inactive), the GI50 (SK-MEL-2) was 7.53 µM (inactive) and the GI50 (HCT-15) was > 25 µM. The GI50 (COLO 205) was 8.51 µM (inactive), the GI50 (HCT-116) was > 25 µM (inactive) and the GI50 (OVCAR-4) was > 25 µM (inactive). For the same molecule, the GI50 (LOX IMVI) was 12.3 µM (inactive), the GI50 (EKVX) was 15.5 µM (inactive) and the GI50 (UACC-62) was 21.8 µM (inactive). For the same molecule, the GI50 (MOLT-4) was 22.4 µM (inactive), the GI50 (MDA-N) was 7.21 µM (inactive) and the GI50 (SN12C) was 17.4 µM (inactive). The GI50 (CCRF-CEM) was 2.72 µM (inactive), the GI50 (NCI/ADR-RES) was 10.2 µM (inactive) and the GI50 (BT-549) was 19.4 µM (inactive). The GI50 (RXF 393) was 13.1 µM (inactive), the GI50 (NCI-H23) was > 25 µM (inactive) and the GI50 (IGROV-1) was > 25 µM (inactive). For the same molecule, the GI50 (SF-268) was > 25 µM (inactive), the GI50 (SK-MEL-28) was > 25 µM (inactive) and the GI50 (SF-539) was 17.9 µM (inactive). The GI50 (MDA-MB-435) was 6.55 µM (inactive).
